Data published in patent US6399625B1, “1-oxorapamycins” (Wyeth, priority 2000, dated 2002).
≈ marks a conversion by molar mass, not a printed value. Read-outs that look alike come from different tables or passages of the source.

Legend:
Assay type in all cases: cell-based
C. tropicalis GC 3080 = experiment: Antifungal activity, microtiter broth dilution MIC; conditions: 24-48 hours; for ANTIFUNGAL ACTIVITY (MIC): RPMI 1640, 35° C.
Method: (§1) The antifungal activity for the 1-oxorapamycins of this invention was confirmed in a standard pharmacological test procedure which measured the ability of the compound being evaluated to inhibit fungal growth. 1-Oxorapamycin (Compound I), 1-oxorapamycin 42-ester with 3-hydroxy-2-(hydroxymethyl)-2-methylpropionic acid (Compound II), and 42-O-(2-hydroxy)ethyl 1-oxorapamycin (Compound III) were evaluated as representative compounds of this invention. The procedure used and results obtained are briefly described below. A 96 U-bottom microtiter plate was filled (50 μl/well) with RPMI 1640. The compounds to be evaluated were placed in appropriate wells, and serial diluted in successive wells to provide 11 dilutions. The concentrations ranged from 64 through 0.06 μg/ml. An adjusted inoculum of fungi (50 μl) was added to each well and the plates were incubated at 35° C. for 24-48 hours. […] Nystatin and rapamycin were used for the purpose of comparison.

C. albicans GC 3065 = experiment: Antifungal activity, microtiter broth dilution MIC; conditions: 24-48 hours; for ANTIFUNGAL ACTIVITY (MIC): RPMI 1640, 35° C.
Method: as §1

C. albicans GC 3064 = experiment: Antifungal activity, microtiter broth dilution MIC; conditions: 24-48 hours; for ANTIFUNGAL ACTIVITY (MIC): RPMI 1640, 35° C.
Method: as §1

C. pseudotropicalis 3070 = experiment: Antifungal activity, microtiter broth dilution MIC; conditions: RPMI 1640, 35° C., 24-48 hours
Method: as §1

C. krussii GC 3067 = experiment: Antifungal activity, microtiter broth dilution MIC; conditions: RPMI 1640, 35° C., 24-48 hours
Method: as §1

C. albicans GC 3066 = experiment: Antifungal activity, microtiter broth dilution MIC; conditions: 24-48 hours; for ANTIFUNGAL ACTIVITY (MIC): RPMI 1640, 35° C.
Method: as §1

C. parapsilosis GC 3076 = experiment: Antifungal activity, microtiter broth dilution MIC; conditions: 24-48 hours; for ANTIFUNGAL ACTIVITY (MIC): RPMI 1640, 35° C.
Method: as §1

C. lusitaniae GC 3068 = experiment: Antifungal activity, microtiter broth dilution MIC; conditions: RPMI 1640, 35° C., 24-48 hours; for MIC: Clavispora lusitaniae
Method: as §1

A. niger GC 3091 = experiment: Antifungal activity, microtiter broth dilution MIC; conditions: 24-48 hours; for ANTIFUNGAL ACTIVITY (MIC): RPMI 1640, 35° C.
Method: as §1

A. niger GC 6591 = experiment: Antifungal activity, microtiter broth dilution MIC; conditions: 24-48 hours; for ANTIFUNGAL ACTIVITY (MIC): RPMI 1640, 35° C.
Method: as §1

A. fumigatus GC 3092 = experiment: Antifungal activity, microtiter broth dilution MIC; conditions: for ANTIFUNGAL ACTIVITY (MIC): A. fumigatus GC 3092, RPMI 1640, 35° C., 24-48 hours
Method: as §1

C. parapsilosis GC 3074 = experiment: Antifungal activity, microtiter broth dilution MIC; conditions: 24-48 hours; for ANTIFUNGAL ACTIVITY (MIC): RPMI 1640, 35° C.
Method: as §1

C. parapsilosis GC 3075 = experiment: Antifungal activity, microtiter broth dilution MIC; conditions: 24-48 hours; for ANTIFUNGAL ACTIVITY (MIC): RPMI 1640, 35° C.
Method: as §1

C. tropicalis GC 3081 = experiment: Antifungal activity, microtiter broth dilution MIC; conditions: 24-48 hours; for ANTIFUNGAL ACTIVITY (MIC): RPMI 1640, 35° C.
Method: as §1

SH-SY5Y cells = experiment: Neuroregeneration activity, neurite outgrowth; conditions: aphidicolin pretreated, NGF plus test compound, mean ± SEM
Text: The neuroregeneration activity for the compounds of this invention was confirmed in a standard pharmacological test procedure by evaluating 1-oxo-rapamycin (Compound I) as representative compound of this invention, against SH-SY5Y cells in vitro [Gold et al., Exp Neurol 147: 269-278, 1997]. Briefly, SH-SY5Y cells were placed in 6-well plate treated with aphidicolin for 5 days followed by the test compounds using 6-well plates. For controls, wells were untreated, or treated with nerve growth factor (NGF) alone. Test wells were treated with NGF plus compound I or rapamycin. Cells were photographed at 168 hours. Analysis of neuritic lengths was performed on photographic prints using a Houston Instrument HI-PAD digitizing tablet connected to an IBM XT computer with appropriate software (Bioquant IV, R&M Biometrics, Nashville, Tenn.). Mean values for axonal areas were compared using by ANOVA (STATVIEW, Abacus Concepts, Inc., Berkeley, Calif. The following table summarizes the results that were obtained.

[1] = system: SW620 (colon) tumor cell line; experiment: Antineoplastic activity, tumor cell growth inhibition (sulforhodamine B); conditions: 48 hours
Text: (§2) Antineoplastic activity for the compounds of this invention was confirmed by evaluating the antineoplastic activity of representative compounds of this invention (Compounds I-III) against six tumor cell lines in vitro. Briefly, tumor cells from six cell lines were placed in wells of a 96 well microtiter plate. The following tumor cell lines were used: 3T3 (ovarian), 3T3/H2N (ovarian—resistant to cis-platin), A431 (vulva epidermoid origin), SW620 (colon), SKBR3 (breast), and MDA-435 (breast). The tumors cells were grown in the presence of serial dilutions of the compound to be evaluated for 48 hours, and cell growth determined using a colorimetric procedure (sulforhrodamine B). The inhibition of growth was calculated compared to the number of cells at the time of test compound addition. Results are expressed as an IC50 (μg/ml); N/A indicates the compound was not evaluated against that cell line. The following IC50s was listed on Table 2.

[2] = system: MDA-435 (breast) tumor cell line; experiment: as above; conditions: MDA435 cells, 48 hours
Text: as §2

[3] = system: SKBR3 (breast) tumor cell line; experiment: as above; conditions: 48 hours
Text: as §2

[4] = system: 3T3 (ovarian) tumor cell line; experiment: as above; conditions: Mus musculus, NIH3T3, 3T3 cells, 48 hours
Text: as §2

[5] = system: 3T3/H2N (ovarian—resistant to cis-platin) tumor cell line; experiment: as above; conditions: 3T3/H2N cells, 48 hours
Text: as §2

[6] = system: A431 (vulva epidermoid origin) tumor cell line; experiment: as above; conditions: 48 hours
Text: as §2

[7] = C. lusitaniae GC 3068, first listing (r26)

## C[C@@H]1[C@H](O)[C@@H](C)/C=C/C=C/CC/C=C/C=C/C=C/C=C/C(O[C@H]2O[C@H](C)[C@@H](O)[C@H](N)[C@@H]2O)CC2O[C@](O)(CC(O)C(O)CCC(O)CC(O)CC(O)CC(=O)O[C@H]1C)CC(O)C2C(=O)O (stereo partly drawn) [Nystatin, reference compound]
C. tropicalis GC 3080
  ANTIFUNGAL ACTIVITY (MIC): 0.25 µg/mL
C. albicans GC 3065
  ANTIFUNGAL ACTIVITY (MIC): 1 µg/mL
C. albicans GC 3064
  ANTIFUNGAL ACTIVITY (MIC): 1 µg/mL
C. pseudotropicalis 3070
  ANTIFUNGAL ACTIVITY (MIC): 0.50 µg/mL
C. krussii GC 3067
  ANTIFUNGAL ACTIVITY (MIC): 1 µg/mL
C. albicans GC 3066
  ANTIFUNGAL ACTIVITY (MIC): 1 µg/mL
C. parapsilosis GC 3076
  ANTIFUNGAL ACTIVITY (MIC): 0.50 µg/mL
C. lusitaniae GC 3068; [7]
  ANTIFUNGAL ACTIVITY (MIC): 0.50 µg/mL
C. lusitaniae GC 3068; C. lusitaniae GC 3068, second listing (r28)
  ANTIFUNGAL ACTIVITY (MIC): 1 µg/mL
A. niger GC 3091
  ANTIFUNGAL ACTIVITY (MIC): 2 µg/mL
A. niger GC 6591
  ANTIFUNGAL ACTIVITY (MIC): 2 µg/mL
A. fumigatus GC 3092
  ANTIFUNGAL ACTIVITY (MIC): 1 µg/mL
C. parapsilosis GC 3074
  ANTIFUNGAL ACTIVITY (MIC): 1 µg/mL
C. parapsilosis GC 3075
  ANTIFUNGAL ACTIVITY (MIC): 0.50 µg/mL
C. tropicalis GC 3081
  ANTIFUNGAL ACTIVITY (MIC): 1 µg/mL

## CO[C@H]1C[C@@H]2CC[C@@H](C)[C@@](O)(O2)C(=O)C(=O)N2CCCC[C@H]2C(=O)O[C@H]([C@H](C)C[C@@H]2CC[C@@H](O)[C@H](OC)C2)CC(=O)[C@H](C)/C=C(\C)[C@@H](O)[C@@H](OC)C(=O)[C@H](C)C[C@H](C)/C=C/C=C/C=C/1C [Rapamycin]
SH-SY5Y cells
  Mean Neurite Lengths after 168 h, Neurite Length: 261.4 ± 13.1 μm
[1]; Homo sapiens, SW-620, SW620 cells
  IC50: 2.3 µg/mL (≈ 2.52 µM)
[2]
  IC50: 1.3 µg/mL (≈ 1.42 µM)
[3]; Homo sapiens, SK-BR-3, SKBR3 cells
  IC50: 0.87 µg/mL (≈ 0.952 µM)
[4]
  IC50: 0.48 µg/mL (≈ 0.525 µM)
[5]
  IC50: 1.7 µg/mL (≈ 1.86 µM)
[6]; Homo sapiens, A-431, A431 cells
  IC50: 1.9 µg/mL (≈ 2.08 µM)
C. tropicalis GC 3080; Candida tropicalis, GC3080, RPMI 1640, 35° C.
  MIC: 0.25 µg/mL (≈ 0.273 µM)
C. albicans GC 3065; Candida albicans, GC3065, RPMI 1640, 35° C.
  MIC: 0.5 µg/mL (≈ 0.547 µM)
C. albicans GC 3064; Candida albicans, GC3064, RPMI 1640, 35° C.
  MIC: < 0.12 µg/mL
C. pseudotropicalis 3070; Kluyveromyces marxianus
  MIC: < 0.12 µg/mL
C. krussii GC 3067
  MIC: 4 µg/mL (≈ 4.38 µM)
C. albicans GC 3066; Candida albicans, GC3066, RPMI 1640, 35° C.
  MIC: < 0.12 µg/mL
C. parapsilosis GC 3076; Lodderomyces parapsilosis, GC3076, RPMI 1640, 35° C.
  MIC: < 0.12 µg/mL
C. lusitaniae GC 3068; GC3068, C. lusitaniae GC 3068, first listing (r26), read-out: ANTIFUNGAL ACTIVITY (MIC)
  MIC: < 0.12 µg/mL
C. lusitaniae GC 3068; GC3068, read-out: ANTIFUNGAL ACTIVITY (MIC), C. lusitaniae GC 3068, second listing (r28)
  MIC: 0.5 µg/mL (≈ 0.547 µM)
A. niger GC 3091; Aspergillus niger, GC3091, RPMI 1640, 35° C.
  MIC: > 128 µg/mL
A. niger GC 6591; Aspergillus niger, GC6591, RPMI 1640, 35° C.
  MIC: > 128 µg/mL
A. fumigatus GC 3092; Aspergillus fumigatus, GC3092, read-out: ANTIFUNGAL ACTIVITY (MIC)
  MIC: > 128 µg/mL
C. parapsilosis GC 3074; Lodderomyces parapsilosis, GC3074, RPMI 1640, 35° C.
  MIC: 0.25 µg/mL (≈ 0.273 µM)
C. parapsilosis GC 3075; Lodderomyces parapsilosis, GC3075, RPMI 1640, 35° C.
  MIC: < 0.12 µg/mL
C. tropicalis GC 3081; Candida tropicalis, GC3081, RPMI 1640, 35° C.
  MIC: 0.25 µg/mL (≈ 0.273 µM)

## CO[C@H]1CC2CC[C@@H](C)[C@@](O)(O2)C(=O)C(=O)N2CCCC[C@H]2C(=O)O[C@H]([C@H](C)CC2CC[C@@H](OCCO)[C@H](OC)C2)CC(=O)[C@H](C)/C=C(\C)[C@@H](O)[C@@H](OC)C(=O)[C@H](C)C[C@H](C)C(=O)C/C=C/C=C/1C (stereo partly drawn) [Compound III, 42-O-(2-Hydroxy)ethyl 1-oxorapamycin]
[1]; SW620 cells
  Antineoplastic Activity (IC50): 1.9 µg/mL
[3]; SKBR3 cells
  Antineoplastic Activity (IC50): 0.038 µg/mL
[6]; A431 cells
  Antineoplastic Activity (IC50): 0.48 µg/mL
C. tropicalis GC 3080
  ANTIFUNGAL ACTIVITY (MIC): 2 µg/mL
C. albicans GC 3065
  ANTIFUNGAL ACTIVITY (MIC): 2 µg/mL
C. albicans GC 3064
  ANTIFUNGAL ACTIVITY (MIC): 4 µg/mL
C. pseudotropicalis 3070
  ANTIFUNGAL ACTIVITY (MIC): 2 µg/mL
C. krussii GC 3067
  ANTIFUNGAL ACTIVITY (MIC): >32 µg/mL
C. albicans GC 3066
  ANTIFUNGAL ACTIVITY (MIC): 2 µg/mL
C. parapsilosis GC 3076
  ANTIFUNGAL ACTIVITY (MIC): 2 µg/mL
C. lusitaniae GC 3068; [7]
  ANTIFUNGAL ACTIVITY (MIC): 2 µg/mL
A. niger GC 3091
  ANTIFUNGAL ACTIVITY (MIC): >32 µg/mL
A. niger GC 6591
  ANTIFUNGAL ACTIVITY (MIC): >32 µg/mL
A. fumigatus GC 3092
  ANTIFUNGAL ACTIVITY (MIC): 2 µg/mL
C. parapsilosis GC 3074
  ANTIFUNGAL ACTIVITY (MIC): 2 µg/mL
C. parapsilosis GC 3075
  ANTIFUNGAL ACTIVITY (MIC): 2 µg/mL
C. tropicalis GC 3081
  ANTIFUNGAL ACTIVITY (MIC): 2 µg/mL
